We go through 14 compounds from patent publication EP0540676B1, “PEPTIDE COMPOUNDS HAVING GROWTH HORMONE RELEASING ACTIVITY” (POLYGEN HOLDING CORPORATION, priority 1990, dated 1994).

This assay relates to GH Release. As to the kind of experiment: In vivo GH release in pentobarbital anesthetized rats (serum GH by RIA). The settings on record: for GH Released Serum GH ng/ml ± SEM (N=6): Table 6, pentobarbital anesthetized rats (table title); for GH Released Serum GH ng/ml ± SEM (N=6) / GH Released by Compound in Column A: sacrificed 10 minutes after final injection; for activity compared with peptides having another residue in the A₂ position: in words, summary of Tables 3, 4, 5 and 6, rats; for GH Released by Compound in Column A: Table 4, pentobarbital anesthetized rats; for GH Released by Compound in Column A / GH Released: mean ± SEM, six rats; for GH Released: Table 5, anesthetized rats. As for the experimental part:
Immature female Sprague-Dawley rats were obtained from the Charles River Laboratories (Wilmington, MA). After arrival they were housed at 25 °C with a 14:10 hour light:dark cycle. Water and Purina rat chow were available ad libitum. Pups were kept with their mothers until 21 days of age.
Twenty-six day old rats, six rats per treatment group, were anesthetized interperitoneally with 50 mg/Kg of pentobarbital 20 minutes prior to i.v. treatment with peptide. Normal saline with 0.1% gelatin was the vehicle for intravenous (i.v.) injections of the peptides. The anesthetized rats, weighing 55-65 grams, were injected i.v. with the quantity of growth hormone releasing compounds indicated in Tables 3, 4 and 5. Injection was made as a 0.2 mL solution into the jugular vein.
All animals were sacrificed by guillotine 10 minutes after the final test injection (see Tables 3 and 4). Trunk blood for the determination of blood GH levels was collected following decapitation. After allowing the blood to clot, it was centrifuged and the serum was separated from the clot. Serum was kept fozen until the day of sampling for radioimmunasay (RIA) determination of growth hormone levels according to the following procedure, as developed by the National Institute of Arthritis, Diabetes and Digestive and Kidney Diseases (NIADDK).
Reagents are generally added to the RIA analysis tubes at a single sitting, at refrigerator temperature (about 4 °C) in the following sequence: • (a) buffer, • (b) "cold" (i.e., non-radioactive) standard or unknown serum sample to be analyzed, • (c) radio-iodinated growth hormone antigen, and • (d) growth hormone antiserum. Reagent addition is generally carried out so that there is achieved a final RIA tube dilution of about 1:30,000 (antiserum to total liquid volume; vol:vol).
The mixed reagents are then typically incubated at room temperature (about 25 °C) for about 24 hours prior to addition of a second antibody (e.g., goat or rabbit anti-monkey gamma globulin serum) which binds to and causes precipitation of the complexed growth hormone anti serum. Precipitated contents of the RIA tubes are then analyzed for the number of counts in a specified period of time in a gamma scintillation counter. A standard curve is prepared by plotting number of radioactive counts versus growth hormone (GH) level. GH levels of unknowns are then determined by reference to the standard curve.
Serum GH was measured by RIA with reagents provided by the National Hormone and Pituitary Program.
Serum levels in Tables 3, 4, 5 and 6 are recorded in ng/mL in terms of the rat GH standard of 0.61 International Units/mg (IU/mg). Data is recorded as the mean +/- standard error of the mean (SEM). Statistical analysis was performed with Student's t-test. NS means the difference was not statistically significant. In Tables 3, 4, 5 and 6 the results shown are the average of studies with six rats.

Where [1] appears, read: Total Dose 0.3 µg, several experiments with different controls.
The mark [2] stands for this setting: Total Dose 1.0 µg, several experiments with different controls.

Where “and” joins values, the source holds several entries; their conditions need not be identical. Identical values can stand only once. Where a SMILES comes first, the peptide text is derived from it. [ ]: non-standard residue; d: D form.

For the compound `C[C@H](N)C(=O)N[C@H](Cc1ccc2ccccc2c1)C(=O)N[C@@H](C)C(=O)N[C@@H](Cc1c[nH]c2ccccc12)C(=O)N[C@H](Cc1ccccc1)C(=O)N[C@@H](CCCCN)C(N)=O` [Ala-DβNal-Ala-Trp-DPhe-Lys-NH₂] (HELM PEPTIDE1{A.[O=C([C@@H](Cc1ccc2ccccc2c1)N[*:1])[*:2]].A.W.[dF].K.[am]}$$$$V2.0), the “GH Released Serum GH ng/ml ± SEM (N=6)” value came out at 363 ± 73 ng/mL under setting [1], 1450 ± 294 ng/mL under setting [2], 2072 ± 208 ng/mL (Total Dose 3.0 µg) and 2698 ± 369 ng/mL (Total Dose 10.0 µg).

`C[C@H](N)C(=O)N[C@@H](Cc1c[nH]cn1)C(=O)N[C@H](Cc1ccc2ccccc2c1)C(=O)N[C@@H](C)C(=O)N[C@@H](Cc1c[nH]c2ccccc12)C(=O)N[C@H](Cc1ccccc1)C(=O)N[C@@H](CCCCN)C(N)=O` [Ala-His-DβNal-Ala-Trp-DPhe-Lys-NH₂, Ala-His-D^βNal-Ala-Trp-DPhe-Lys-NH₂] (HELM PEPTIDE1{A.H.[O=C([C@@H](Cc1ccc2ccccc2c1)N[*:1])[*:2]].A.W.[dF].K.[am]}$$$$V2.0): the “activity compared with peptides having another residue in the A₂ position” value is reported as “more active than the equivalent DTrp compound”. Moreover, the “GH Released Serum GH ng/ml ± SEM (N=6)” value (Total Dose 0.1 µg, several experiments with different controls) is 822 ± 243 ng/mL and 610 ± 90 ng/mL. Besides, the “GH Released Serum GH ng/ml ± SEM (N=6)” value under setting [1] was 1418 ± 302 ng/mL and 1746 ± 318 ng/mL and 1549 ± 292 ng/mL and 1140 ± 187 ng/mL. Besides, the “GH Released Serum GH ng/ml ± SEM (N=6)” value under setting [2] is 2201 ± 269 ng/mL and 2610 ± 176 ng/mL and 2180 ± 284 ng/mL and 2909 ± 257 ng/mL. Where the note is “Total Dose 3.0 µg”, the “GH Released Serum GH ng/ml ± SEM (N=6)” value was determined as 3686 ± 436 ng/mL.

Regarding `C[C@H](N)C(=O)N[C@@H](Cc1c[nH]cn1)C(=O)N[C@H](Cc1c[nH]cn1)C(=O)N[C@@H](C)C(=O)N[C@@H](Cc1c[nH]c2ccccc12)C(=O)N[C@H](Cc1ccccc1)C(=O)N[C@@H](CCCCN)C(N)=O` [AlaHisDHisAlaTrpDPheLysNH₂] (HELM PEPTIDE1{A.H.[dH].A.W.[dF].K.[am]}$$$$V2.0), under “Total Dose .3 µg i.v.”, the “GH Released by Compound in Column A” value was 268 ± 54 ng/mL.

As to `C[C@H](N)C(=O)N[C@@H](Cc1c[nH]cn1)C(=O)N[C@H](Cc1ccccc1)C(=O)N[C@@H](C)C(=O)N[C@@H](Cc1c[nH]c2ccccc12)C(=O)N[C@H](Cc1ccccc1)C(=O)N[C@@H](CCCCN)C(N)=O` [AlaHisDPheAlaTrpDPheLysNH₂] (HELM PEPTIDE1{A.H.[dF].A.W.[dF].K.[am]}$$$$V2.0), the “GH Released by Compound in Column A” value (Total Dose .3 µg i.v.) is 616 ± 74 ng/mL.

For the compound `C[C@H](N)C(=O)N[C@@H](Cc1c[nH]cn1)C(=O)N1CCC[C@@H]1C(=O)N[C@@H](C)C(=O)N[C@@H](Cc1c[nH]c2ccccc12)C(=O)N[C@H](Cc1ccccc1)C(=O)N[C@@H](CCCCN)C(N)=O` [AlaHisDProAlaTrpDPheLysNH₂] (HELM PEPTIDE1{A.H.[dP].A.W.[dF].K.[am]}$$$$V2.0), the “GH Released by Compound in Column A” value (Total Dose .3 µg i.v.) worked out at 262 ± 51 ng/mL.

For the compound `C[C@H](N)C(=O)N[C@@H](Cc1c[nH]cn1)C(=O)N[C@H](Cc1c[nH]c2ccccc12)C(=O)N[C@@H](C)C(=O)N[C@@H](Cc1c[nH]c2ccccc12)C(=O)N[C@H](Cc1ccccc1)C(=O)N[C@@H](CCCCN)C(N)=O` [AlaHisDTrpAlaTrpDPheLysNH₂] (HELM PEPTIDE1{A.H.[dW].A.W.[dF].K.[am]}$$$$V2.0), the “GH Released by Compound in Column A” value (Total Dose .3 µg i.v.) worked out at 901 ± 21 ng/mL.

In the case of `C[C@H](NC(=O)[C@@H](N)Cc1c[nH]cn1)C(=O)N[C@H](Cc1c[nH]c2ccccc12)C(=O)N[C@@H](C)C(=O)N[C@@H](Cc1c[nH]c2ccccc12)C(=O)N[C@H](Cc1ccccc1)C(=O)N[C@@H](CCCCN)C(N)=O` [His-Ala-DTrp-Ala-Trp-DPhe-Lys-NH₂] (HELM PEPTIDE1{H.A.[dW].A.W.[dF].K.[am]}$$$$V2.0), the “GH Released” value by setting is: (Total Dose 1.0 µg i.v.) 830 ± 103 ng/mL; (Total Dose 3.0 µg i.v.) 2588 ± 341 ng/mL; (Total Dose .3 µg i.v.) 261 ± 32 ng/mL.

On to `C[C@H](NC(=O)[C@@H](CC(=O)O)NC(=O)[C@@H](N)Cc1c[nH]cn1)C(=O)N[C@@H](Cc1c[nH]c2ccccc12)C(=O)N[C@H](Cc1ccccc1)C(=O)N[C@@H](CCCCN)C(N)=O` [His-DAsp-Ala-Trp-DPhe-Lys-NH₂] (HELM PEPTIDE1{H.[dD].A.W.[dF].K.[am]}$$$$V2.0), for which the “GH Released” value is on record as 154 ± 63 ng/mL (Total Dose 1.0 µg i.v.); 155 ± 34 ng/mL (Total Dose 3.0 µg i.v.); 163 ± 44 ng/mL (Total Dose 10.0 µg i.v.); 224 ± 62 ng/mL (Total Dose 30.0 µg i.v.); 178 ± 83 ng/mL (Total Dose 100.0 µg i.v.).

As to `CSC[C@@H](NC(=O)[C@@H](N)Cc1c[nH]cn1)C(=O)N[C@@H](C)C(=O)N[C@@H](Cc1c[nH]c2ccccc12)C(=O)N[C@H](Cc1ccccc1)C(=O)N[C@@H](CCCCN)C(N)=O` [His-DCys(SMe)-Ala-Trp-DPhe-Lys-NH₂] (H-H[dC](Me)AW[dF]K-NH2), the “GH Released” value turned out to be 193 ± 28 ng/mL (Total Dose 1.0 µg i.v.), 180 ± 34 ng/mL (Total Dose 3.0 µg i.v.) and 178 ± 28 ng/mL (Total Dose .3 µg i.v.).

With `C[C@H](NC(=O)[C@@H](Cc1ccccc1)NC(=O)[C@H](Cc1c[nH]c2ccccc12)NC(=O)[C@H](C)NC(=O)[C@@H](Cc1c[nH]c2ccccc12)NC(=O)[C@@H](N)Cc1c[nH]cn1)C(=O)N[C@@H](CCCCN)C(N)=O` [His-DTrp-Ala-Trp-DPhe-Ala-Lys-NH₂] (HELM PEPTIDE1{H.[dW].A.W.[dF].A.K.[am]}$$$$V2.0), the “GH Released” value (Total Dose 1.0 µg i.v.) was 1965 ± 366 ng/mL, the “GH Released” value (Total Dose 3.0 µg i.v.) was determined as 4553 ± 670 ng/mL, the “GH Released” value (Total Dose .1 µg i.v.) came to 420 ± 105 ng/mL and the “GH Released” value (Total Dose .3 µg i.v.) is recorded as 900 ± 163 ng/mL.

In the case of `C[C@H](NC(=O)[C@@H](Cc1c[nH]c2ccccc12)NC(=O)[C@@H](N)Cc1c[nH]cn1)C(=O)N[C@@H](Cc1c[nH]c2ccccc12)C(=O)N[C@H](Cc1ccccc1)C(=O)N[C@@H](CCCCN)C(N)=O` [His-DTrp-Ala-Trp-DPhe-Lys-NH₂] (HELM PEPTIDE1{H.[dW].A.W.[dF].K.[am]}$$$$V2.0), the “GH Released” value was determined as 1531 ± 303 ng/mL (Total Dose 1.0 µg i.v.), 2349 ± 267 ng/mL (Total Dose 3.0 µg i.v.), 512 ± 43 ng/mL (Total Dose .1 µg i.v.) and 566 ± 114 ng/mL (Total Dose .3 µg i.v.).

Consider `C[C@H](NC(=O)[C@@H](Cc1cccc2ccccc12)NC(=O)[C@@H](N)Cc1c[nH]cn1)C(=O)N[C@@H](Cc1c[nH]c2ccccc12)C(=O)N[C@H](Cc1ccccc1)C(=O)N[C@@H](CCCCN)C(N)=O` [His-D^αNal-Ala-Trp-DPhe-Lys-NH₂] (HELM PEPTIDE1{H.[O=C([C@@H](Cc1cccc2ccccc12)N[*:1])[*:2]].A.W.[dF].K.[am]}$$$$V2.0), for which the “GH Released” value (Total Dose 1.0 µg i.v.) is 1130 ± 179 ng/mL, the “GH Released” value (Total Dose 3.0 µg i.v.) worked out at 2319 ± 139 ng/mL, the “GH Released” value (Total Dose .1 µg i.v.) is recorded as 280 ± 70 ng/mL and the “GH Released” value (Total Dose .3 µg i.v.) is 439 ± 122 ng/mL.

Consider `C[C@H](NC(=O)[C@@H](Cc1ccccc1)NC(=O)[C@H](Cc1c[nH]c2ccccc12)NC(=O)[C@H](C)NC(=O)[C@@H](Cc1ccc2ccccc2c1)NC(=O)[C@@H](N)Cc1c[nH]cn1)C(=O)N[C@@H](CCCCN)C(N)=O` [His-D^βNal-Ala-Trp-DPhe-Ala-Lys-NH₂] (HELM PEPTIDE1{H.[O=C([C@@H](Cc1ccc2ccccc2c1)N[*:1])[*:2]].A.W.[dF].A.K.[am]}$$$$V2.0), for which the “GH Released” value (Total Dose 1.0 µg i.v.) came to 1593 ± 359 ng/mL, the “GH Released” value (Total Dose 3.0 µg i.v.) worked out at 3337 ± 583 ng/mL, the “GH Released” value (Total Dose .1 µg i.v.) worked out at 484 ± 89 ng/mL and the “GH Released” value (Total Dose .3 µg i.v.) was 971 ± 241 ng/mL.

In the case of `C[C@H](NC(=O)[C@@H](Cc1ccc2ccccc2c1)NC(=O)[C@@H](N)Cc1c[nH]cn1)C(=O)N[C@@H](Cc1c[nH]c2ccccc12)C(=O)N[C@H](Cc1ccccc1)C(=O)N[C@@H](CCCCN)C(N)=O` [His-D^βNal-Ala-Trp-DPhe-Lys-NH₂] (HELM PEPTIDE1{H.[O=C([C@@H](Cc1ccc2ccccc2c1)N[*:1])[*:2]].A.W.[dF].K.[am]}$$$$V2.0), the “activity compared with peptides having another residue in the A₂ position” value was “more active than compounds having DTrp, D^αNal, DAsp, and DCys (SMe) in the A₂ position”.
